# From patent publication US5506221A, “Contignasterol, and related 3-alpha hydroxy-6-alpha hydroxy-7-beta hydroxy-15-keto-14-beta steroids useful as anti-inflammatory and anti-thrombosis agents” (University of British Columbia, priority 1994, dated 1996)
# “Also recorded” adds a separate entry of the source.
# Legend:
# [1] = test system: allergeninduced challenge; test: relative potencies of isomers of contignasterol against allergen-induced challenge; settings: for % Inhibition: allergen-induced challenge; for inhibition: concentration not given
# Text: Table 4 illustrates the relative potencies of different isomers of contignasterol against allergeninduced challenge.
# [2] = test system: platelets; test: platelet aggregation in response to PAF; format: cell-based
# Text: (§1) PAF is a local mediator of thrombosis. Similarly, collagen exposure of vessel walls leads to the formation of […] clot in the vessels. Therefore, prevention of the formation of blood clots has direct implication in the treatment of thrombosis and associated cardiovascular diseases.
# (§2) PAF and collagen were used at their maximal concentrations to which induced 100% aggregation of platelets.
# [3] = test system: human basophils; test: histamine release from human basophils/leukocytes challenged with anti-human IgE; format: cell-based
# Description: A major test to confirm the anti-allergic property of contignasterols is the histamine release from human basophils. […] We used […] human blood leukocytes from allergic (allergy to grass pollen) individuals and prepared leukocytes. The leukocytes were then challenged with anti-human IgE for the release of histamine. The leukocytes were either exposed to 50 μg/ml of contignasterol or saline alone (control). The amount of histamine released from the leukocytes was measured using radioenzymatic assay.
# [4] = test system: platelets; test: platelet aggregation in response to collagen; format: cell-based
# Text: as §1, §2
# [5] = test system: tracheal tissues; test: ovalbumin (OA)-induced contraction of tracheal tissues from sensitized guinea pigs; format: cell-based
# Text: We have used the contignasterol as defined in paragraph one of the Summary to block bronchoconstriction induced in guinea pigs. Guinea pigs were sensitized to ovalbumine (OA) that can serve as an antigen. The trachea from these animals after exposure to the antigen (OA) contracted in a similar manner as to in vivo situation.
# [6] = test system: rat mast cells; settings: induced by anti-IgE; cited from earlier work
smiles,measurement,setting,value
"CC(C)C1CC(O)OC([C@@H](C)[C@H]2CC(=O)[C@@H]3[C@@H]4[C@@H](O)[C@H](O)[C@H]5[C@@H](O)[C@H](O)CC[C@]5(C)[C@H]4CC[C@]23C)C1 (stereo partly shown) [Compound 1, contignasterol]",% Inhibition,[1]; 10 μM,43%
same,inhibition,[1],47%
same,"inhibition of platelet aggregation caused by PAF, in words",[2]; PAF,inhibited aggregation of platelets; also recorded: inhibits platelet aggregation
same,activity at 5 µg/mL,"[2]; Platelet, contignasterol 5 μg/ml, PAF at maximal concentration, read-out: Aggregation (% of Control), PAF",90%
same,activity at 10 µg/mL,"[2]; Platelet, contignasterol 10 μg/ml, PAF at maximal concentration, read-out: Aggregation (% of Control), PAF",56%
same,activity at 20 µg/mL,"[2]; Platelet, contignasterol 20 μg/ml, PAF at maximal concentration, read-out: Aggregation (% of Control), PAF",44%
same,activity at 30 µg/mL,"[2]; Platelet, contignasterol 30 μg/ml, PAF at maximal concentration, read-out: Aggregation (% of Control), PAF",28%
same,activity at 50 µg/mL,"[2]; Platelet, contignasterol 50 μg/ml, PAF at maximal concentration, read-out: Aggregation (% of Control), PAF",0%
same,"inhibition of histamine release from human basophils, in words",[3]; basophils present in the blood,inhibits histamine release
same,Histamine Release (% of Total),"[3]; contignasterol 50 μg/ml, challenge with anti-IgE, control (no drug) 36.4, basal release 9.8",19.0 % of Total
same,activity at 5 µg/mL,"[4]; Platelet, contignasterol 5 μg/ml, collagen at maximal concentration, read-out: Aggregation (% of Control), Collagen",70%
same,activity at 30 µg/mL,"[4]; Platelet, contignasterol 30 μg/ml, collagen at maximal concentration, read-out: Aggregation (% of Control), Collagen",0%
same,activity at 50 µg/mL,"[4]; Platelet, contignasterol 50 μg/ml, collagen at maximal concentration, read-out: Aggregation (% of Control), Collagen",0%
same,"inhibition of platelet aggregation caused by collagen, in words",[4]; collagen,inhibited aggregation of platelets; also recorded: inhibits platelet aggregation
same,Contraction (% of Maximal),"[5]; contignasterol 1 μg/ml, ovalbumine 0.001 μg/ml, control 6.6",0.00 % of Maximal
same,Contraction (% of Maximal),"[5]; contignasterol 1 μg/ml, ovalbumine 0.01 μg/ml, control 12",-7.7 % of Maximal
same,Contraction (% of Maximal),"[5]; contignasterol 1 μg/ml, ovalbumine 0.1 μg/ml, control 28.6",-8.5 % of Maximal
same,Contraction (% of Maximal),"[5]; contignasterol 1 μg/ml, ovalbumine 1 μg/ml, control 34.0",27.5 % of Maximal
same,Contraction (% of Maximal),"[5]; contignasterol 1 μg/ml, ovalbumine 10 μg/ml, control 46.0",30 % of Maximal
same,Contraction (% of Maximal),"[5]; contignasterol 1 μg/ml, ovalbumine 100 μg/ml, control 55.7",39 % of Maximal
same,Contraction (% of Maximal),"[5]; contignasterol 1 μg/ml, ovalbumine 300 μg/ml, control 56",39.7 % of Maximal
same,Contraction (% of Maximal),"[5]; contignasterol 10 μg/ml, ovalbumine 0.001 μg/ml, control 6.6",0.00 % of Maximal
same,Contraction (% of Maximal),"[5]; contignasterol 10 μg/ml, ovalbumine 0.01 μg/ml, control 12",-8.0 % of Maximal
same,Contraction (% of Maximal),"[5]; contignasterol 10 μg/ml, ovalbumine 0.1 μg/ml, control 28.6",-8.0 % of Maximal
same,Contraction (% of Maximal),"[5]; contignasterol 10 μg/ml, ovalbumine 1 μg/ml, control 34.0",6.0 % of Maximal
same,Contraction (% of Maximal),"[5]; contignasterol 10 μg/ml, ovalbumine 10 μg/ml, control 46.0",16.0 % of Maximal
same,Contraction (% of Maximal),"[5]; contignasterol 10 μg/ml, ovalbumine 100 μg/ml, control 55.7",16.6 % of Maximal
same,Contraction (% of Maximal),"[5]; contignasterol 10 μg/ml, ovalbumine 300 μg/ml, control 56",29.6 % of Maximal
same,Contraction (% of Maximal),"[5]; contignasterol 50 μg/ml, ovalbumine 0.001 μg/ml, control 6.6",0.00 % of Maximal
same,Contraction (% of Maximal),"[5]; contignasterol 50 μg/ml, ovalbumine 0.01 μg/ml, control 12",0.0 % of Maximal
same,Contraction (% of Maximal),"[5]; contignasterol 50 μg/ml, ovalbumine 0.1 μg/ml, control 28.6",0.0 % of Maximal
same,Contraction (% of Maximal),"[5]; contignasterol 50 μg/ml, ovalbumine 1 μg/ml, control 34.0",5.5 % of Maximal
same,Contraction (% of Maximal),"[5]; contignasterol 50 μg/ml, ovalbumine 10 μg/ml, control 46.0",11.1 % of Maximal
same,Contraction (% of Maximal),"[5]; contignasterol 50 μg/ml, ovalbumine 100 μg/ml, control 55.7",16.6 % of Maximal
same,Contraction (% of Maximal),"[5]; contignasterol 50 μg/ml, ovalbumine 300 μg/ml, control 56",22 % of Maximal
same,"effect on antigen-induced tracheal/airway smooth muscle contraction, in words","[5]; tissue pretreated, exposed to antigen (OA)",did not significantly contract; also recorded: inhibited airway smooth muscle contraction
"CC(C)C1CC(O)OC([C@@H](C)[C@H]2CC(=O)[C@H]3[C@@H]4[C@@H](O)[C@H](O)[C@H]5[C@@H](O)[C@H](O)CC[C@]5(C)[C@H]4CC[C@]23C)C1 (stereo partly shown) [Compound 2, 14-epicontignasterol]",% Inhibition,[1]; 10 μM,25%
same,inhibition,[1],25%
COC1CC(C(C)C)CC([C@@H](C)[C@H]2CC(=O)[C@@H]3[C@@H]4[C@@H](O)[C@H](O)[C@H]5[C@@H](O)[C@H](O)CC[C@]5(C)[C@H]4CC[C@]23C)O1 (stereo partly shown) [Compound 3],% Inhibition,[1]; 10 μM,12%
same,"change in potency on conversion of hemiacetal to methyl acetal, in words","[1]; 10 μM, methyl acetal (3) versus contignasterol (1)",significant decrease in the potency
same,inhibition,[1],12%
"CC(C)C[C@]1(O)C[C@@H](C)[C@H]2[C@@H]1C(=O)[C@@H]1[C@@H]3[C@@H](O)[C@H](O)[C@H]4C[C@H](O)CC[C@]4(C)[C@H]3CC[C@]21C [xestobergsterol A, 23S-16β, 23-cyclo-3α,6α,7β,23-tetrahydroxy-5α,14β-cholestan-15-one]","inhibition of histamine release, in words",[6],potent inhibitors of histamine release
"CC(C)C[C@]1(O)C[C@@H](C)[C@H]2[C@@H]1C(=O)[C@@H]1[C@@H]3[C@@H](O)[C@H](O)[C@H]4C[C@H](O)[C@@H](O)[C@@H](O)[C@]4(C)[C@H]3CC[C@]21C [xestobergsterol B, 23S-16β,23-cyclo-1β,2β,3α,6α,7β,23-hexahydroxy-5α,14β-cholestan-15-one]","inhibition of histamine release, in words",[6],potent inhibitors of histamine release
